Measurements as given in patent US10849989B2, “Isolated composite drug and carrier nanoparticles” (University of Limerick, priority 2016, dated 2020).

Tests used:
[1] = isoelectric point; cited from earlier work
[2] = Zeta potential determination (electrophoretic light scattering, Malvern Zetasizer Nano ZSP); type: physicochemical; conditions: particles without surface treatment agent, suspension in water, 25° C.
Method: Zeta potential can be determined from electrophoretic mobility using the Smoluchowski calculation. The electrophoretic mobility value can be determined at 25° C. by electrophoretic light scattering (ELS), e.g. using a Malvern Zetasizer Nano ZSP system. Such commercially available ELS instrumentation will directly provide zeta potential values. Aqueous suspensions are filled into a folded capillary cell and equilibrated at 25° C. for 120 seconds before measurement. Three measurements are taken per run and each sample is run twice. The average value and the variation between measurements can be reported.
Unless otherwise stated, reference to zeta potential is a reference to the zeta potential of a suspension of the particles in water at neutral pH (pH 7) at standard ambient temperature and pressure (SATP, 25° C. and 100 kPa).
Zetapotential measurements were conducted on a Malvern Zetasizer Nano ZSP system. Zetapotential was determined from the electrophoretic mobility using the Smoluchowski approximation. The samples (without dilution) were filled into a folded capillary cell and equilibrated at 25° C. for 120 s before measurement. Three measurements were taken per run and each sample was run twice. The average value and the variation between measurements were reported.

[3] = Particle size analysis by laser diffraction (Malvern Mastersizer 3000); type: physicochemical; conditions: water as dispersion medium
Method: Particle size can be determined by laser diffraction, for example using a Malvern Mastersizer 3000.
Particle size measurements were performed by laser diffraction using a Malvern Mastersizer 3000, with water as the dispersion medium. In cases where the particle size was not stable, HPMC and SDS were added to the water dispersant at a concentration of 0.038 mg/mL each to minimise variation between consecutive measurements. Precipitated drug suspensions were diluted by a factor of 5 with water prior to their introduction to the measurement vessel. An MMT control was treated by the conditions used during antisolvent precipitation before measuring its particles size. An obscuration rate of 7-10%, a stir rate of 2300 rpm, a 1 min pre-measurement delay (including 20 sec with 5% sonication power) were the conditions used during all size measurements. A refractive index of 1.55 and an absorption index of 0.01 were used for FF measurements. A refractive index of 1.55 and an absorption index of 0.1 were used for MMT measurements. Four measurements were taken per run and each sample was run twice. The D50 was reported for each size distribution and averaged across all measurements. Measurement variations were also reported.

[4] = Drug loading of nanoparticles on carrier; type: physicochemical; conditions: on the PA-MMT carrier (4.6 mg PA/g MMT)
Text: The drug loading in % w/w is the amount of drug in grams per 100 g of functionalised carrier particles. A high drug loading is beneficial for delivering a sufficient dose to a patient. In embodiments the composite has a drug loading of at least 2, 4, 6, 8, 9, 10, 15, 20, 30, 40 or 50% w/w. In embodiments the composite has a drug loading of no more than 100, 90, 80 or 70% w/w.
The drug loading (% w/w) can also be determined by dissolution testing whereby a known mass of dry drug loaded carrier particles is dissolved in a known volume of dissolution media. […] The concentration of drug in the dissolution media is measured by UV/Vis and/or HPLC spectroscopic methods until it stops increasing with time. The mass of drug present on the known mass of drug loaded carrier particles can thus be estimated and the drug loading in (% w/w) can be calculated.
Nanoparticles of both fenofibrate (FF) and mefenamic acid (MEF) were generated by antisolvent precipitation. An organic solution of FF in ethanol (1 mL, 50 mg/mL) was quickly introduced by Eppendorf pipet to 10 mL antisolvent containing (a) water, (b) an MMT suspension in water (50 mg/mL, equilibrated for >2 hrs) or (c) a protamine-modified MMT suspension in water (50 mg/mL, 4.6-189.9 mg PA/g MMT, equilibrated for >2 hrs). Solutions/suspensions were maintained at 25° C. under rapid agitation (800 rpm) throughout the precipitation process. […]

zeta potential [2]	particle size D50 [3]	drug loading [4]	Compound	pI [1]
			C[C@H](N)C(=O)O [Alanine]	6.00
−35.3 mV	0.84±0.05 μm	4.8%	Cc1cccc(Nc2ccccc2C(=O)O)c1C [mefenamic acid]	
			Avidin [Avidin (glycoprotein)]	10.5
			Galatine B	5
			Gelatine A	6-9
